The source of these data is patent US7893082B2, “Substituted tetrahydroquinolines” (Merck Patent GmbH, priority 2005, dated 2011).

This assay has as its system cells. Kind of assay: cell cycle effect (appended experiments). As to conditions: G2/M cell cycle. It counts as cell-based.

For `N=C(N)c1ccc(OCCCCCOc2ccc(C(=N)N)cc2)cc1` [pentamidine], the “effect on cell cycle” value is reported as “maintain cells in the G2/M cell cycle”.
